Earlier results as cited in patent publication US11499155B2, “Dynamin 2 inhibitor for the treatment of centronuclear myopathies” (UNIVERSITE DE STRASBOURG, priority 2013, dated 2022).

What was measured:
[1] = target: receptor-mediated and synaptic vesicle endocytosis; details: read-out: IC50 for inhibition of receptor-mediated and synaptic vesicle endocytosis
mitochondrial division = details: read-out: IC50 (mitochondrial division inhibitor)

Structure (SMILES) | IC50 (Dynamin) [nM] | also measured
O=C(NN=Cc1cc(O)c(O)cc1O)c1cc2ccccc2cc1O [Hydroxy-Dynasore, 3-Hydroxy-N′-[(2,4,5-trihydroxyphenyl)methylidene]naphthalene-2-carbohydrazide] | 2500 | –
CCCCCCCCCCCCCC[N+](C)(C)C [MiTMAB, Tetradecyltrimethylammonium bromide] | – | IC50 [1]: 2200 nM
COc1cc(-n2c(S)nc3ccccc3c2=O)c(Cl)cc1Cl [M-divi 1, 3-(2,4-Dichloro-5-methoxyphenyl)-2-sulfanylquinazolin-4(3H)-one] | – | IC50 (mitochondrial division): 10 µM
CCCCCCCCCCCCCCCCCC[N+](C)(C)CCN1C(=O)C2C3CCC(O3)C2C1=O (stereo not shown) [RTIL-13, 4-(N,N-Dimethyl-N-octadecyl-N-ethyl)-4-aza-10-oxatricyclo-[5.2.1]decane-3,5-dione bromide] | 2300 | –
